Experimental data taken from patent publication US9388179B2, “N-substituted indazole sulfonamide compounds with selective activity in voltage-gated sodium channels” (Merck Sharp & Dohme Corp., priority 2012, dated 2016).

Key:
Assay type in all cases: cell-based
[1] = target: T1, human Nav1.7 channels stably expressed in HEK 293 cells (Homo sapiens, UniProt Q15858); test: PatchXpress 7000 automated patch-clamp, inactivated state block; conditions: PatchXpress technique; read-out: Nav 1.7 potency
T1 construct: expressed in transfected cells; host or cells: HEK 293
Procedure: (§1) For all electrophysiology experiments, offline analysis was used to correct for current rundown and to determine percent inhibition as a function of drug concentration. IC50 values were determined by fitting to the Hill equation.
(§2) Sodium Current Measurements on the PatchXpress 7000®:
(§3) To measure inactivated state block of sodium channels, test compounds were characterized in an automated PatchXpress® assay (Molecular Devices) using a double-pulse protocol on human Nav1.7 and Nav1.5 channels stably expressed in HEK 293 cells. Cells were held at a potential 20 mV negative to V0.5 inact. An 8000 ms pre-pulse 7 mV positive to V0.5 inact was given followed by a hyperpolarizing 2 ms pulse to −120 mV and a 20 ms test pulse to −20 mV. Protocol was applied to cells in the absence, presence of compound and after washout. The temperature of PatchXpress instruments was maintained at 22° C. The following recording solutions were used. Internal solution (mM): 30 CsCl, 5 HEPES, 10 EGTA, 120 CsF, 5 NaF, 2 MgCl2. External solution (mM): 120 NMDG, 40 NaCl, 1 KCl, 0.5 MgCl2, 5 HEPES, 2.7 CaCl2.

[2] = target: T2, human Nav1.5 channels stably expressed in HEK 293 cells (Homo sapiens, UniProt Q14524); test: as above; conditions: PatchXpress technique
T2 construct: expressed in transfected cells; host or cells: HEK 293
Procedure: as §1, §2, §3

[3] = target: T1, human Nav1.7 channels stably expressed in HEK 293 cells; test: IonWorks Quattro automated patch-clamp, inactivated state block; conditions: IonWorks technique; read-out: Nav 1.7 potency
Procedure: as §1
(§4) Cell Based Assays for Nav 1.7 and Nav 1.5 Activity
(§5) Compounds were tested on human Nav1.7 and Nav1.5 channels stably expressed in HEK 293 cells. […] Cells were sealed on a planar substrate using the Population Patch […] (PPC) technology. Electrical access was obtained using both nystatin and amphotericin. A double-pulse protocol was used for the determination of IC50 values for inactivated state block. Nav1.7 and Nav1.5 expressing cells were voltage clamped at −100 mV and −110 mV, respectively. A depolarizing prepulse to −10 mV (Nav1.7) or −30 mV (Nav1.5) for 1000 ms followed by a 10 ms repolarization to −100 mV (Nav1.7) or −110 mV (Nav1.5) was given to generate fractional channel inactivation of 50%, followed by a 10 ms test pulse to −10 mV (Nav1.7) or −30 mV (Nav1.5) to measure peak current in control conditions and after compound addition. The following recording solutions were used (mM). External: 150 NaCl, 2 CaCl2, 5 KCl, 1 MgCl2, 10 HEPES, 12 Dextrose; internal: 120 CsF, 30 CsCl, 10 EGTA, 5 HEPES, 5 NaF, 2 MgCl2.

[4] = target: T2, human Nav1.5 channels stably expressed in HEK 293 cells; test: as above; conditions: IonWorks technique
Procedure: as §1, §4, §5

T2 sequence (Q14524 whole entry): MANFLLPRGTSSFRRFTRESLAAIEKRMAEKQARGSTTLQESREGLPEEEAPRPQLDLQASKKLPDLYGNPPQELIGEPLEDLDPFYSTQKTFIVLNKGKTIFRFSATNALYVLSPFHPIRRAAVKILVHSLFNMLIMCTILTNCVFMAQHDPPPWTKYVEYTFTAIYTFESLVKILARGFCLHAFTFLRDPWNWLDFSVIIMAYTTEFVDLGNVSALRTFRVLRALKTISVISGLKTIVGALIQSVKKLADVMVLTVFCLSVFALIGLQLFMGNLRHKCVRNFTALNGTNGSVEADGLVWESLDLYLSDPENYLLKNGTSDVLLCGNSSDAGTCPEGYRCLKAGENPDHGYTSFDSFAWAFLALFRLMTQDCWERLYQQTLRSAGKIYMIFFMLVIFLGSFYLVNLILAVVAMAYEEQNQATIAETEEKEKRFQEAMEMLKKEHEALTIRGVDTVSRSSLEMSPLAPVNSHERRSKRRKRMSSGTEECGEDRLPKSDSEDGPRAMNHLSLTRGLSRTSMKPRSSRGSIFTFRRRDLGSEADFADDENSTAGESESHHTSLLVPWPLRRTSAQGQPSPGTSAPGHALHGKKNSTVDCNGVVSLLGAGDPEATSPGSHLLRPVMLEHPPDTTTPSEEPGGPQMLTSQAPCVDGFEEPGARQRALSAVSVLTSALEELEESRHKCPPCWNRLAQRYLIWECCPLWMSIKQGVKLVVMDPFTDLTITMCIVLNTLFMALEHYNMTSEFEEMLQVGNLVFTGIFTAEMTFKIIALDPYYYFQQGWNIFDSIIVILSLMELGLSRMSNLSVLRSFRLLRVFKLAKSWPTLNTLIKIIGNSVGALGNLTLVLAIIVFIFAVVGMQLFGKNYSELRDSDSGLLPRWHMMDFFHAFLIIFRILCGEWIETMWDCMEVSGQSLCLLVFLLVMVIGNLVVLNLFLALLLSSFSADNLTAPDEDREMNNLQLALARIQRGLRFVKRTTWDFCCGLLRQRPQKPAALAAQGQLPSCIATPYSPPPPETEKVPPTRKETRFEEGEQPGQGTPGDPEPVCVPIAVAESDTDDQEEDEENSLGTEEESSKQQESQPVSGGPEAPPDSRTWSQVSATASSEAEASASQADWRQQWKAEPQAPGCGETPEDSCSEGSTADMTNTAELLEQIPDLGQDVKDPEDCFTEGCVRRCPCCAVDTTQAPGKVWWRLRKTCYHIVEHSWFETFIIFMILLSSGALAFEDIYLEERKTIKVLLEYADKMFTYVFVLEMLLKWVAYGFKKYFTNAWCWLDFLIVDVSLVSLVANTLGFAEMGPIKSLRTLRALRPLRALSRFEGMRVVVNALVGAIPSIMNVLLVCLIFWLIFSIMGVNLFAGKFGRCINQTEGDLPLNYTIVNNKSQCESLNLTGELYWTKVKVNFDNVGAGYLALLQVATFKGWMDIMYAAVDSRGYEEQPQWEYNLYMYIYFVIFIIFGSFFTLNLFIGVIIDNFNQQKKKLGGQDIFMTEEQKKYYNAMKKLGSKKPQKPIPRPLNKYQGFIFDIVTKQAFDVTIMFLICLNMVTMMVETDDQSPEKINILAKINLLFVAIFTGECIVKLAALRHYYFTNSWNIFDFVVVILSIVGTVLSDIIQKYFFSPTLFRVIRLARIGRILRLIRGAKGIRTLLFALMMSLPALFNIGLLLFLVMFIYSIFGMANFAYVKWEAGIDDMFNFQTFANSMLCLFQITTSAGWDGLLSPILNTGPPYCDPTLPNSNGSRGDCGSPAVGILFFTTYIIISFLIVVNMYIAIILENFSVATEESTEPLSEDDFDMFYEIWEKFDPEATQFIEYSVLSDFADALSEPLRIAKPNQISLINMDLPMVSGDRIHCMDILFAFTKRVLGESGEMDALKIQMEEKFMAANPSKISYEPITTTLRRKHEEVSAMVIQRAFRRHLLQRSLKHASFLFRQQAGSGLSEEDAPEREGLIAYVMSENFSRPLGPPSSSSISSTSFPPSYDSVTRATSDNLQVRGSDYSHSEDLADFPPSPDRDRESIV
T1 sequence (Q15858 whole entry): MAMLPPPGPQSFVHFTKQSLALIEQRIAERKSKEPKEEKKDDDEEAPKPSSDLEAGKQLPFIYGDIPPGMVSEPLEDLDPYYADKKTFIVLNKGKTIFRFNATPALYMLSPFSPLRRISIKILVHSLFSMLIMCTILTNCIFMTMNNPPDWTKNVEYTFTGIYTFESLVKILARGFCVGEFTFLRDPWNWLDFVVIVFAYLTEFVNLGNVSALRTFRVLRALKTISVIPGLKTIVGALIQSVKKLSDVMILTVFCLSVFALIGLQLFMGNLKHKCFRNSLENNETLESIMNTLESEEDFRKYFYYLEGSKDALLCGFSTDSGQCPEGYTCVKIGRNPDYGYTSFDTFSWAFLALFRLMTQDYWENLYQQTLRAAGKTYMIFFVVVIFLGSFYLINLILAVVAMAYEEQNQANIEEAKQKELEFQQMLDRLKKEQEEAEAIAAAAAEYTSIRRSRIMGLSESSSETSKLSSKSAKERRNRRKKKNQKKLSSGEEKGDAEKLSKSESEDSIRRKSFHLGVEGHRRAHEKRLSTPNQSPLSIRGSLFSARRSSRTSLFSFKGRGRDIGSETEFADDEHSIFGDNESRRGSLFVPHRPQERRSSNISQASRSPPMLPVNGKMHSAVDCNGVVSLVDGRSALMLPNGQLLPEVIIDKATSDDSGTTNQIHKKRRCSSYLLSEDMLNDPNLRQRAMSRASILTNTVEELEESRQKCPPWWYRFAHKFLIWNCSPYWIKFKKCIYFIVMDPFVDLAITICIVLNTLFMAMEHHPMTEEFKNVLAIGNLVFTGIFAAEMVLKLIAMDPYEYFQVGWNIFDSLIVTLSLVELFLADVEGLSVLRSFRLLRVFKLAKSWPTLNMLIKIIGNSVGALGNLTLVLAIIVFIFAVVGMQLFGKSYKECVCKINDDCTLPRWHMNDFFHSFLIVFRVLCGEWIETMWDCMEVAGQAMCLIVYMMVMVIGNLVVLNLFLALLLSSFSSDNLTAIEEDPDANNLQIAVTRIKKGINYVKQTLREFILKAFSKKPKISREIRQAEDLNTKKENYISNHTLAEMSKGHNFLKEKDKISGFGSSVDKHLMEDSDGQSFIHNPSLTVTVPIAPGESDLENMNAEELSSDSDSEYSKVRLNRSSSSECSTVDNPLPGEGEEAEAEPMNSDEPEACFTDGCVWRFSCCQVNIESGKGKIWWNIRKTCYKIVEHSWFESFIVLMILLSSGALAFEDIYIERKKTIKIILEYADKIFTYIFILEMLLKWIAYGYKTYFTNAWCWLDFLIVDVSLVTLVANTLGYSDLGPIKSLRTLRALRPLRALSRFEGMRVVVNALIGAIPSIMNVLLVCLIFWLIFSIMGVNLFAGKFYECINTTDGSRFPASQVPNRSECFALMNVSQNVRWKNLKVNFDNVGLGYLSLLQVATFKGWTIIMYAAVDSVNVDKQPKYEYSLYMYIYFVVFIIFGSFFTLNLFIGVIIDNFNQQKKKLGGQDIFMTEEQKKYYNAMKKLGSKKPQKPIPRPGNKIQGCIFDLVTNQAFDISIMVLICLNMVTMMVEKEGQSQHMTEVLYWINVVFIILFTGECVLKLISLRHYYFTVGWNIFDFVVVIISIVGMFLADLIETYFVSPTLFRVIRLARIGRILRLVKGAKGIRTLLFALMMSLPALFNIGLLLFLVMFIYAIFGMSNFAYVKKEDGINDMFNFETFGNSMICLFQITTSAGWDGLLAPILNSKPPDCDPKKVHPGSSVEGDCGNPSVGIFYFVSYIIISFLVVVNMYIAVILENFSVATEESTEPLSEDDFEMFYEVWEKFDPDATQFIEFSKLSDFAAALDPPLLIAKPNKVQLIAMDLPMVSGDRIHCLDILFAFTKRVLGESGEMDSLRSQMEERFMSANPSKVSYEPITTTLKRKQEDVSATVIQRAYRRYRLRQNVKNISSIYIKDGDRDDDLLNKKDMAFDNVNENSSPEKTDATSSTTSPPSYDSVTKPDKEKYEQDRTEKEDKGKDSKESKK

Row | SMILES | IC50 [1] [µM] | IC50 [3] [µM] | Ratio 1.5:1.7 = Nav 1.5 potency (nM)/Nav1.7 potency (nM) [2] | Ratio 1.5:1.7 = Nav 1.5 potency (nM)/Nav1.7 potency (nM) [4]
1 | O=S(=O)(Nc1ncns1)c1ccc2c(cnn2Cc2ccccc2C2=CCNCCC2)c1 [Ex-23, 1-[2-(2,5,6,7-tetrahydro-1H-azepin-4-yl)benzyl]-N-1,2,4-thiadiazol-5-yl-1H-indazole-5-sulfonamide] | 4.47 | 1.7 | > 7 | 19
2 | O=S(=O)(Nc1ncc(Cl)s1)c1cc2cnn(Cc3cccc4c3CNCC4)c2cc1F [Ex-3, N-(5-chlorothiazol-2-yl)-6-fluoro-1-((1,2,3,4-tetrahydroisoquinolin-8-yl)methyl)-1H-indazole-5-sulfonamide] | 0.052 | 0.328 | 636 | 91
3 | O=S(=O)(Nc1ncns1)c1ccc2c(cnn2Cc2ccccc2-c2cccc3c2CCNC3)c1 [Ex-22, 1-[2-(1,2,3,4-tetrahydroisoquinolin-5-yl)benzyl]-N-1,2,4-thiadiazol-5-yl-1H-indazole-5-sulfonamide] | 2.9 | 1.46 | > 10 | 23
4 | O=S(=O)(Nc1cccc(F)n1)c1cc2cnn(Cc3cccc4c3CNCC4)c2cc1F [Ex-4, 6-fluoro-N-(6-fluoropyridin-2-yl)-1-((1,2,3,4-tetrahydroisoquinolin-8-yl)methyl)-1H-indazole-5-sulfonamide] | 0.855 | 0.519 | 64 | 58
5 | O=S(=O)(Nc1ncns1)c1ccc2c(cnn2Cc2ccc(Cl)cc2C2=CCNCCC2)c1 [Ex-17, 1-[4-chloro-2-(2,5,6,7-tetrahydro-1H-azepin-4-yl)benzyl]-N-1,2,4-thiadiazol-5-yl-1H-indazole-5-sulfonamide] | 4.47 | 0.559 | 7 | 59

The next lines start with results.

Row | IC50 [1] [µM] | IC50 [3] [µM] | SMILES | Ratio 1.5:1.7 = Nav 1.5 potency (nM)/Nav1.7 potency (nM) [2] | Ratio 1.5:1.7 = Nav 1.5 potency (nM)/Nav1.7 potency (nM) [4]
6 | 3.03 | 0.856 | O=S(=O)(Nc1ncns1)c1ccc2c(cnn2Cc2ccccc2)c1 [Ex-19, 1-benzyl-N-1,2,4-thiadiazol-5-yl-1H-indazole-5-sulfonamide] | 6 | 39
7 | 0.054 | 0.034 | NC/C=C/c1ccccc1Cn1ncc2cc(S(=O)(=O)Nc3ncns3)c(F)cc21 [Ex-5, (E)-1-(2-(3-aminoprop-1-en-1-yl)benzyl)-6-fluoro-N-(1,2,4-thiadiazol-5-yl)-1H-indazole-5-sulfonamide] | 560 | 963
8 | 0.007 | 0.006 | NC1CCc2cccc(Cn3ncc4cc(S(=O)(=O)Nc5ncns5)c(F)cc43)c2C1 (single isomer, unassigned) [Ex-13, (R or S)-1-((7-amino-5,6,7,8-tetrahydronaphthalen-1-yl)methyl)-6-fluoro-N-(1,2,4-thiadiazol-5-yl)-1H-indazole-5-sulfonamide] | 2275 | 5406
9 | 0.153 | 0.106 | O=S(=O)(Nc1ncns1)c1cc2cnn(Cc3cccc4c3CNCC4)c2cc1F [Ex-1, 6-fluoro-1-((1,2,3,4-tetrahydroisoquinolin-8-yl)methyl)-N-(1,2,4-thiadiazol-5-yl)-1H-indazole-5-sulfonamide] | 310 | 311
10 | 0.495 | 0.936 | O=S(=O)(Nc1ncns1)c1cc2cnn(Cc3ccccc3)c2cc1F [Ex-12, 1-benzyl-6-fluoro-N-(1,2,4-thiadiazol-5-yl)-1H-indazole-5-sulfonamide] | 174 | 15
